Experimental data as given in the NIST ThermoML archive (doi:10.1021/je800530u).

Settings: Liquid, Closed cell (Static) method

NCCO [2-aminoethan-1-ol]
Settings	vapor or sublimation pressure [kPa]
283.15 K	0.0158
283.34 K	0.016
288.34 K	0.02533
293.15 K	0.0382
293.34 K	0.03866
298.34 K	0.05866
303.15 K	0.0867
303.34 K	0.08799
308.34 K	0.1293
313.15 K	0.1855
313.34 K	0.188
318.34 K	0.2693
323.15 K	0.3762
323.34 K	0.3813
328.34 K	0.5333
333.15 K	0.7274
333.34 K	0.7359
338.34 K	1.007
343.15 K	1.347
343.34 K	1.363
348.34 K	1.827
353.15 K	2.4
353.34 K	2.425
358.34 K	3.193
363.09 K	4.113
363.15 K	4.126

O [water]
Settings	vapor or sublimation pressure [kPa]
282.87 K	1.177
283.15 K	1.2
287.87 K	1.636
292.87 K	2.244
293.15 K	2.284
297.87 K	3.044
302.87 K	4.081
303.15 K	4.148
307.87 K	5.416
312.87 K	7.114
313.15 K	7.222
317.87 K	9.258
322.87 K	11.94
323.15 K	12.11
327.87 K	15.27
332.87 K	19.36
333.15 K	19.62
337.87 K	24.37
342.87 K	30.44
343.15 K	30.82
347.87 K	37.76
352.87 K	46.53
353.15 K	47.07
357.87 K	56.98
362.87 K	69.35
363.15 K	70.1
363.8 K	71.88

CN1CCOCC1 [N-methylmorpholine]
Settings	vapor or sublimation pressure [kPa]
273.18 K	0.6893
278.18 K	0.9533
283.18 K	1.3
288.18 K	1.748
293.18 K	2.322
298.18 K	3.049
303.18 K	3.96
308.18 K	5.09
313.15 K	6.471
313.18 K	6.479
318.18 K	8.174
323.15 K	10.21
323.18 K	10.22
328.18 K	12.68
333.15 K	15.58
333.18 K	15.6
338.18 K	19.06
343.15 K	23.1
343.18 K	23.13
348.18 K	27.88
353.08 K	33.27
353.15 K	33.35
363.15 K	47.02
